Key:
[1] = test system: pooled plasma from rabbits; experiment: In vitro diluted prothrombin time (dPT) assay, rabbit plasma; conditions: for concentration that causes 2-fold prolongation of baseline dPT: 2X; for concentration that causes 5-fold prolongation of baseline dPT: 5X; for concentration that causes 10-fold prolongation of baseline dPT: 10X
Method: (§1) Rat, rabbit, dog, and human blood (typically 1.8 mL) was collected and added to a sodium citrate solution (3.8%) to afford a 1:10 dilution. After centrifugation (2000 g for 10 minutes), the blood plasma was stored at −70° C. to 0° C. […] […] Fibrin formation and the time required for a clot to form were determined using an automated ST4 Clot Detection System in duplicate.

pooled plasma from dogs = experiment: In vitro diluted prothrombin time (dPT) assay, dog plasma; conditions: for concentration that causes 2-fold prolongation of baseline dPT: 2X; for concentration that causes 5-fold prolongation of baseline dPT: 5X; for concentration that causes 10-fold prolongation of baseline dPT: 10X
Method: as §1

[2] = test system: pooled plasma from human volunteers; experiment: In vitro diluted prothrombin time (dPT) assay, human plasma; conditions: for concentration that causes 2-fold prolongation of baseline dPT: 2X; for concentration that causes 5-fold prolongation of baseline dPT: 5X; for concentration that causes 10-fold prolongation of baseline dPT: 10X
Method: as §1

rabbit = experiment: Rabbit veno-venous shunt model of thrombosis; assay type: in vivo
Method: In that model, a plastic shunt which contains cotton thread was inserted into abdominal vena cava and thrombus developed inside the shunt under control conditions. The end points of the experiment are the time to occlusion (TTO) and thrombus weight. […] Three doses have been tested in a total of 15 rabbits (5 rabbits in each group): 30 μg/kg+1 μg/kg/min, 60 μg/kg+2 μg/kg/min, and 90 μg/kg+3 μg/kg/min. […] The net thrombus weight was reduced from 56.4±4.3 to 21.3±7.8 mg in that group.

human factor Xa [3] = molecular target: T1, human factor Xa (Homo sapiens, UniProt P00742); experiment: Determination of factor Xa IC50 (chromogenic substrate S2765); assay type: biochemical
T1 construct: human factor Xa (1 nM final, Enzyme Research Laboratories); purchased Enzyme Research Laboratories
Method: The ability of compounds to act as inhibitors of human factor Xa catalytic activity is assessed by determination of that concentration of test substance that inhibits by 50% (IC50) the ability of human factor Xa to cleave the chromogenic substrate S2765 (N-CBz-D-Arg-L-Gly-L-Arg-p-nitroanilide. 2HCl, DiaPharma). Typically, 145 μL human factor Xa (1 nM final, Enzyme Research Laboratories) in 10 mM HEPES, 150 mM NaCl, 0.1% BSA, pH 7.4 (HBSA buffer), and 5 μL of test substance in DMSO (2% final) are incubated for 60 minutes at room temperature. Following preheating to 37° C. for 5 minutes, to this mixture is added 100 μL of S2765 (400 μM final) in HBSA buffer. The velocity of S2765 hydrolysis is determined at 37° C. by measuring the initial rate of change of the optical density at OD405 nm every 10 seconds for 5 minutes using a ThermoMax® Kinetic Microplate Reader.

human trypsin = experiment: Determination of trypsin IC50 (chromogenic substrate S2222); assay type: biochemical
Method: The ability of compounds to act as inhibitors of human trypsin catalytic activity is assessed by determination of that concentration of test substance that inhibits by 50% (IC50) the ability of human trypsin to cleave the chromogenic substrate S2222 (N-Bz-L-Ile-L-Glu-L-Gly-L-Arg-p-nitroanilide. HCl, DiaPharma). Typically, 145 μL human trypsin (0.5 nM final) in 10 mM HEPES, 150 mM NaCl, 0.1% BSA, and 5 μL of the test substance in DMSO (2% final) are incubated for 60 minutes at room temperature. Following preheating to 37° C. for 5 minutes, to this mixture is added 100 μL of S2222 in HBSA buffer (100 μM final), and the velocity of S2222 hydrolysis is determined at 37° C. by measuring the optical density at OD 405 nm every 10 seconds over 5 minutes using a ThermoMax® Kinetic Microplate Reader.

[4] = molecular target: T2, human tissue factor/factor VIIa complex (Homo sapiens, UniProt P08709); experiment: Determination of tissue factor/factor VIIa inhibition (Spectrozyme VIIa); assay type: biochemical; conditions: read-out: VIIa % inhib. @ 100 μM
T2 construct: 50 μL human factor VIIa (Enzyme Research Laboratories); purchased Enzyme Research Laboratories (factor VIIa); American Diagnostica (tissue factor)
Method: The ability of compounds to act as inhibitors of the catalytic activity of human tissue factor/factor VIIa complex is assessed by determination of that concentration of test substance that inhibits by 50% (IC50 the ability of a complex of human recombinant tissue factor/factor VIIa to cleave the chromogenic substrate Spectrozyme VIIa (CH3SO2-D-CHA-Arg-pNA*AcOH, American Diagnostica). Typically, 50 μL human factor VIIa (Enzyme Research Laboratories) is incubated for 10 minutes as a 1:1 mixture (5 nM final each) with 95 μL recombinant human tissue factor (American Diagnostica) in a modified HBSA buffer (10 mM Hepes, 5 mM CaCl2, 0.1% BSA, pH 8.0). Then 5 μL of the test substance in DMSO (2% final) is added and incubated for 60 minutes at room temperature. Following preheating to 37° C. for 5 minutes, to this mixture is added 100 μL of Spectrozyme VIIa (500 μM final) in modified HBSA, and the velocity of Spectrozyme VIIa hydrolysis is determined at 37° C. by measuring the optical density at an OD405 nm every 10 seconds over 5 minutes using a ThermoMax® Kinetic Microplate Reader.

human thrombin = molecular target: T3, human thrombin (Homo sapiens, UniProt P00734); experiment: Determination of thrombin IC50 (chromogenic substrate Chromozym TH); assay type: biochemical
T3 construct: regulates the generation of thrombin from its zymogen prothrombin; purchased Enzyme Research Laboratories
Method: The ability of compounds to act as inhibitors of human thrombin catalytic activity is assessed by determination of that concentration of test substance that inhibits by 50% (IC50) the ability of human thrombin to cleave the chromogenic substrate Chromozym TH (Tosyl-Gly-Pro-Arg-pNA*Ac, Boehringer Mannheim). Typically, 145 μL human thrombin (0.75 nM, Enzyme Research Laboratories) in a HPB buffer (10 mM HEPES, 100 mM NaCl, 0.05% BSA, 0.1% PEG-8000, pH 7.4) and 5 μL of test substance in DMSO (2% final) are incubated for 60 minutes at room temperature. Following preheating to 37° C. for 5 minutes, to this mixture is added 100 μL of Chromozym TH (24 μM final) in HPB buffer. The velocity of Chromozym TH hydrolysis is determined at 37° C. by measuring the initial rate of change of the optical density at OD 405 nm every 10 seconds for 5 minutes using a ThermoMax® Kinetic Microplate Reader.

[5] = molecular target: T4, human prothrombinase (PTase) complex (Homo sapiens, UniProt P00742); experiment: In vitro assay for human prothrombinase; assay type: biochemical; conditions: PTase activity expressed by thrombin activity
T4 construct: 2.5 pM human factor Xa (Enzyme Research Laboratories); purchased Enzyme Research Laboratories
Method: For determination of IC50 (PTase) of the compounds of the invention, PTase activity was expressed by thrombin activity.
PTase reaction was performed in 100 μL of mixture containing PTase (20 μM) PCPS (Avanti Polar Lipids following a procedure modified from Barenholz et al., Biochemistry, 1977;16:2806-2810) in a 30:70 ratio, 2.5 nM human factor Va (Enzyme Research Laboratories) and 2.5 pM human factor Xa (Enzyme Research Laboratories) in modified HEPES buffer (10 mM Hepes, 150 mM NaCl, 0.1% PEG-8000, 0.05% BSA, 2.5 mM CaCl2, pH 7.4), 3 μM human prothrombin (Enzyme Research Laboratories) and varied concentrations of the test compounds (1 nM to 100 μM in DMSO, 2% final). Reaction was started by co-incubating PTase with test compound for 60 minutes at room temperature, followed by addition of prothrombin for 6 minutes at room temperature. Next, the reaction was quenched by the addition of 100 μL of 20 mM EDTA. Activity of the thrombin (product) is then measured in the presence of 50 μL S2238 (250 μM final, H-D-Phe-Pip-Arg-pNA*Ac, DiaPharma) as substrate by measuring the change at 37° C. in OD405 nm for 5 minutes at 10 second intervals using a ThermoMax® Kinetic Microplate Reader.

human factor Xa [6] = molecular target: T1, human factor Xa; experiment: Determination of factor Xa Ki (fluorogenic S2765); assay type: biochemical
Method: Compounds of the present invention may be prepared for assay by dissolving them in buffer to give solutions ranging in concentrations from 1 to 100 μM. In an assay to determine the inhibitory dissociation constant, Ki, for a given compound, a chromogenic or fluorogenic substrate of factor Xa would be added to a solution containing a test compound and factor Xa; the resulting catalytic activity of the enzyme is spectrophotometrically determined. This assay is well-known to those skilled in the art and is commonly used to determine antithrombotic activity.
For Ki determinations, the assay conditions were essentially the same as above except for the following. The concentration of factor Xa was 50 pM, and that of the substrate, in this case a fluorogenic S2765 (i.e. S2765 with AMC tag instead of pNA, California Peptide Research), was over the range of 10 to 500 μM. The test compound and substrate in HBSA buffer were incubated as above, and the reaction was initiated with enzyme-buffer. The data (steady-state velocity at various concentrations of the substrate and the inhibitors) of the competitive inhibition was analyzed using the methods described by Segel (Enzyme Kinetics, Wiley Interscience Publications, 1993). […]

[7] = 30 μg/kg+1, 60 μg/kg+2, 90 μg/kg+3 μg/kg/min
[8] = highest dose 90 μg/kg+3 μg/kg/min

T2 sequence (P08709 213-466 limits assumed): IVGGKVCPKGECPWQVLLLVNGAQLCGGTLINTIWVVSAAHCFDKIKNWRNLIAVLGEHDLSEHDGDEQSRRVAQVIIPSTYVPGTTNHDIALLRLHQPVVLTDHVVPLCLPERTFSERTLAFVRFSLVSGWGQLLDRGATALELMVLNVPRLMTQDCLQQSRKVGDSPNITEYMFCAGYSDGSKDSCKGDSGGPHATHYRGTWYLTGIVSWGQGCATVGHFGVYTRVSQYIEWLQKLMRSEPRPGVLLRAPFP
T2 sequence (P08709 61-212 limits assumed): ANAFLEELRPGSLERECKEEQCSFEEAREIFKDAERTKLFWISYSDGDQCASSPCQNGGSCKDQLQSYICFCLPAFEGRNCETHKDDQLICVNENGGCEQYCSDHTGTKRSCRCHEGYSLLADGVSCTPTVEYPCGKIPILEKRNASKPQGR
T2 sequence (P13726 33-295 partner): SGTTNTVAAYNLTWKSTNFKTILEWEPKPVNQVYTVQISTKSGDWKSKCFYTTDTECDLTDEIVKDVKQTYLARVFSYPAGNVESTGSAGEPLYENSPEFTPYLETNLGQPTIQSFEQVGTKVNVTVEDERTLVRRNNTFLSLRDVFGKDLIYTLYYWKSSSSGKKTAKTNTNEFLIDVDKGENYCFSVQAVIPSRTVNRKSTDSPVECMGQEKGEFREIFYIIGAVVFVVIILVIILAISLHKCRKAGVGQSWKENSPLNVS
T1 sequence (P00742 235-488 limits assumed): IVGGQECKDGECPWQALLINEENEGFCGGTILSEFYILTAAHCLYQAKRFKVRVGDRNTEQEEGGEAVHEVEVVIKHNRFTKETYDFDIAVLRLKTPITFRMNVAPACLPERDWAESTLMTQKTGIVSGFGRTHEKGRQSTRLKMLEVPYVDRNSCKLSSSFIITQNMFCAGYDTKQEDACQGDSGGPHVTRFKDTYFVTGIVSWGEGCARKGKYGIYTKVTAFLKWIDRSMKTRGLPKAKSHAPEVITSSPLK
T1 sequence (P00742 41-179 limits assumed): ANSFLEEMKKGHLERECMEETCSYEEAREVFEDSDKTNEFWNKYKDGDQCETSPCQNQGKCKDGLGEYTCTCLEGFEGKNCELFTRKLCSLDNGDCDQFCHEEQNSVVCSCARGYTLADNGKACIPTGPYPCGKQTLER
T4 sequence (P00742 235-488 limits assumed): as the sequence (P00742 235-488 limits assumed) above
T4 sequence (P00742 41-179 limits assumed): as the sequence (P00742 41-179 limits assumed) above
T4 sequence (P12259 29-737 partner limits assumed): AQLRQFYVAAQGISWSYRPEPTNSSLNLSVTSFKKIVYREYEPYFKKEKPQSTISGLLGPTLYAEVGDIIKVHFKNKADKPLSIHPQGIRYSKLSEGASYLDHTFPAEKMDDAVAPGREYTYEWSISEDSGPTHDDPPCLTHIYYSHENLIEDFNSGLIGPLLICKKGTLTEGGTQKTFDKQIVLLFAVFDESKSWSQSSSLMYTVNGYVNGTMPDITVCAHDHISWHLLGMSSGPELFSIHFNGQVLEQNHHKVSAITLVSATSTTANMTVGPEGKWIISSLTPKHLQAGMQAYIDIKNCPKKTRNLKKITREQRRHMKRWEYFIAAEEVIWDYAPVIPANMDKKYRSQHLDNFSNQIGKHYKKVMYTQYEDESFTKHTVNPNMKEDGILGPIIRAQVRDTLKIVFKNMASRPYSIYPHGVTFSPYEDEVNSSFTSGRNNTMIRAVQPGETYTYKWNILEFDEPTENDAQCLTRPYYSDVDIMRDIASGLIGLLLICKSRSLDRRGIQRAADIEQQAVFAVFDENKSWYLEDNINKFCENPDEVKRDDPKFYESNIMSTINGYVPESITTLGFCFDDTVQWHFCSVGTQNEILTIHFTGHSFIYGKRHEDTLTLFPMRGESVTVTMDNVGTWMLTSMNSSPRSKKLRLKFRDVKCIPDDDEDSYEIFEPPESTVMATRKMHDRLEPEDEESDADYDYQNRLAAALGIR
T4 sequence (P12259 1574-2224 partner limits assumed): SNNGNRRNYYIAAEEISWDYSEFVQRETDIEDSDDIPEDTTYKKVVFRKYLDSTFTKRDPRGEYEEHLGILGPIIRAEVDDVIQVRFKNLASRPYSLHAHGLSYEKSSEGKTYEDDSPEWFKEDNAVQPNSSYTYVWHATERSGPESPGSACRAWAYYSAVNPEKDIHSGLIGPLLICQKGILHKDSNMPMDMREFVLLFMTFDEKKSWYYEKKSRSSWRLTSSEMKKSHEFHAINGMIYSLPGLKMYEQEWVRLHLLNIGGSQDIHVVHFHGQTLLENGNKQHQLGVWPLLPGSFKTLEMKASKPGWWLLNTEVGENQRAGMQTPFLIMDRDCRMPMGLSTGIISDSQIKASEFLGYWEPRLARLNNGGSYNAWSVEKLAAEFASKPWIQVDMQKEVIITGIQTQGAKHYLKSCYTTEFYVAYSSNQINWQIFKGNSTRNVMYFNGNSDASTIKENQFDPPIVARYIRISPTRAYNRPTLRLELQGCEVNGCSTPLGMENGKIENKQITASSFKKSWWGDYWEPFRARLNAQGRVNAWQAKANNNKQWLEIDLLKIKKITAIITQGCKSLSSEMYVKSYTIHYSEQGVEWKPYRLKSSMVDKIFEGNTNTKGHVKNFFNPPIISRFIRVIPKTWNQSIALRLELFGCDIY

Structure (SMILES)	concentration that causes 2-fold prolongation of baseline dPT [1] [µM]	concentration that causes 5-fold prolongation of baseline dPT [1] [µM]	concentration that causes 10-fold prolongation of baseline dPT [1] [μM]	concentration that causes 2-fold prolongation of baseline dPT (pooled plasma from dogs) [µM]	concentration that causes 5-fold prolongation of baseline dPT (pooled plasma from dogs) [µM]	concentration that causes 10-fold prolongation of baseline dPT (pooled plasma from dogs) [μM]	concentration that causes 2-fold prolongation of baseline dPT [2] [µM]	concentration that causes 5-fold prolongation of baseline dPT [2] [µM]	concentration that causes 10-fold prolongation of baseline dPT [2] [μM]	IC50 (human factor Xa [3]) [nM]	IC50 (human trypsin) [nM]	inhibition at 100 µM [4] [%]	IC50 (human thrombin) [nM]	also measured
CC(=N)N1CC[C@H](Oc2ccc([C@H](Cc3ccc4ccc(C(=N)N)cc4c3)C(=O)O)cc2)C1 [DX-9065a, reference compound]	1.4	21.8	96.8	2.5	51.1	118.6	0.06	0.53	1.3					
C[C@@H]1CCC[C@H](C)N1CCCCCN1C(=O)C(c2cccc(C(=N)N)c2)Oc2ccccc21 (stereo partly drawn) [Example 2, 3-(4-5-[(2R,6S)-2,6-Dimethylhexahydro-1-pyridinyl]pentyl-3-oxo-3,4-dihydro-2H-1,4-benzoxazin-2-yl)-1-benzenecarboximidamide]										7	474	30		net thrombus weight, dose dependence (rabbit; [7]): reduced the net thrombus weight; time to occlusion, dose dependence (rabbit; [7]): dose-dependently prolonged the time to occlusion; ACT (rabbit; all 3 dose groups): only slight increases; animals with no occlusive thrombus formation during the 120-minute test period (rabbit; [8]): 4 out of 5; prolongation of PT (rabbit; [8]): 1.8 fold; prolongation of TT (rabbit; [8]): 1.5 fold; prolongation of aPTT (rabbit; [8]): 5.4 fold; prolongation of bleeding time (rabbit; [8]): 2.5 fold; time to occlusion (TTO) (rabbit; highest dose 90 μg/kg+3 μg/kg/min, bolus via jugular vein + infusion 140 minutes, control 16.8±5.4): 98.2 ± 21.8 min; net thrombus weight (rabbit; highest dose 90 μg/kg+3 μg/kg/min, control 56.4±4.3): 21.3 ± 7.8 mg
C[C@@H]1CCC[C@H](C)N1CCCCCN1C(=O)C(c2cccc(C(=N)N)c2)Sc2ccccc21 (stereo partly drawn) [Example 3, 3-(4-5-[(2R,6S)-2,6-Dimethylhexahydro-1-pyridinyl]pentyl-3-oxo-3,4-dihydro-2H-1,4-benzothiazin-2-yl)-1-benzenecarboximidamide]										108	782	31	1780	
C[C@@H]1CCC[C@H](C)N1CCCCCN1C(=O)C(c2cc(C(=N)N)ccc2O)Oc2ccccc21 (stereo partly drawn) [Example 5, 3-(4-5-[(2R,6S)-2,6-Dimethyltetrahydro-1(2H)-pyridinyl]pentyl-3-oxo-3,4-dihydro-2H-1,4-benzoxazin-2-yl)4-hydroxybenzenecarboximidamide]	0.44	0.97	1.86	0.84	1.2	1.81	0.0069	0.063	0.157	< 1	380	29	1030	IC50 [5]: 0.17 nM
C[C@@H]1CCC[C@H](C)N1CCCCCN1C(=O)[C@H](c2cc(C(=N)N)ccc2O)Oc2ccccc21 [Example 6, 3-((2S)-4-5-[(2R,6S)-2,6-Dimethyltetrahydro-1(2H)-pyridinyl]pentyl-3-oxo-3,4-dihydro-2H-1,4-benzoxazin-2-yl)-4-hydroxybenzenecarboximidamide]										3	750	37	1390	Ki (human factor Xa [6]): 0.076 nM
